PubChem BioAssay (NCI)
“And” between values parts separate entries of the source, which are not always exact repeats. Equal entries are not always repeated.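 Briefly, cells in 96-well plates were exposed to five compound concentrations for 48 h, and endpoints were estimated by linear interpolation. Abbreviation: GI50, concentration required for 50% inhibition of growth. TGI is the concentration that stops growth completely.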

Legend:
Experiment in all cases: DTP human tumour cell line panel, 48 h
COLO 205 colon = tested on: COLO 205 colon
HCT-15 colon = tested on: HCT-15 colon
IGROV1 ovarian = tested on: IGROV1 ovarian
NCI-H23 lung = tested on: NCI-H23 lung
NCI-H460 lung = tested on: NCI-H460 lung
SF-295 CNS = tested on: SF-295 CNS
SK-MEL-5 melanoma = tested on: SK-MEL-5 melanoma
SR leukemia = tested on: SR leukemia
UACC-257 melanoma = tested on: UACC-257 melanoma
UO-31 renal = tested on: UO-31 renal

SMILES	GI50 (COLO 205 colon)	TGI (COLO 205 colon)	GI50 (HCT-15 colon)	TGI (HCT-15 colon)	GI50 (IGROV1 ovarian)	TGI (IGROV1 ovarian)	GI50 (NCI-H23 lung)	TGI (NCI-H23 lung)	GI50 (NCI-H460 lung)	TGI (NCI-H460 lung)	GI50 (SF-295 CNS)	TGI (SF-295 CNS)	GI50 (SK-MEL-5 melanoma)	TGI (SK-MEL-5 melanoma)	GI50 (SR leukemia)	TGI (SR leukemia)	GI50 (UACC-257 melanoma)	TGI (UACC-257 melanoma)	GI50 (UO-31 renal)	TGI (UO-31 renal)
O=S(=O)(CCOCc1ccc(-c2ccc3ncnc(Nc4ccc(OCc5cccc(F)c5)c(Cl)c4)c3c2)o1)c1ccccc1	> 25 µM	> 25 µM	> 25 µM	> 25 µM	> 25 µM	> 25 µM	> 25 µM	> 25 µM	> 25 µM	> 25 µM	> 25 µM	> 25 µM	> 25 µM	> 25 µM	> 25 µM	> 25 µM	> 25 µM	> 25 µM	> 7.54 µM	> 25 µM
O=C1C=C(O)c2[nH]c(=O)ccc2C1=O	–	> 100 µM	–	> 100 µM	–	> 100 µM	–	> 100 µM	–	> 100 µM	–	> 100 µM	–	> 100 µM	–	> 100 µM	–	> 100 µM	–	> 100 µM
O=C(/C=C/c1ccccc1)CC(c1ccccc1)N1CCOCC1 (stereo not drawn)	2.45 µM	5.64 µM	1.96 µM	5.52 µM	2.14 µM	5.78 µM	2 µM	4.4 µM	15.5 µM	33.2 µM	2.7 µM	10.5 µM	4.87 µM	17.5 µM	2.71 µM	8.92 µM	5.63 µM	18.8 µM	1.58 µM	3.24 µM
CCN(CC)CCNC(=O)c1c(C)[nH]c(/C=C2\C(=O)Nc3ccc(F)cc32)c1C	3.57 µM and 2.98 µM and 3.39 µM	> 10 µM and 5.84 µM and 8.8 µM	1.22 µM and 1.23 µM and 1.13 µM	> 10 µM and 20 µM and 13.3 µM	1.48 µM and 2.63 µM and 2.05 µM	> 10 µM and 20 µM and 15.9 µM	3.88 µM and 2.6 µM and 2.39 µM	> 10 µM and 9.21 µM and 14.5 µM	2 µM and 2.19 µM	> 10 µM and 5.78 µM and 13.1 µM	> 10 µM and 4.09 µM and 10.2 µM	> 10 µM and 8.23 µM and 24.1 µM	1.66 µM and 2.88 µM and 1.5 µM	4.5 µM and 5.62 µM and 2.92 µM	1.97 µM and 4.56 µM and 1.27 µM	5.11 µM and 14.2 µM and 3.74 µM	> 10 µM and 2.49 µM and 3.24 µM	> 10 µM and 5.21 µM and 8.69 µM	0.629 µM and 1.26 µM and 1.29 µM	> 10 µM and 4.59 µM and 8.07 µM
CC1(C)CC[C@H](C2=CC(=O)c3c(O)ccc(O)c3C2=O)O1	0.632 µM and 0.144 µM and 0.139 µM	1.66 µM and 0.388 µM and 0.227 µM	1.71 µM and 0.378 µM and 0.226 µM	4.11 µM and 1.64 µM and 0.65 µM	4.93 µM and 2.48 µM and 1.61 µM	9.58 µM and 5.31 µM and 3.21 µM	2.14 µM and 0.836 µM and 0.639 µM	6.41 µM and 2.07 µM and 2.36 µM	5.14 µM and 1.61 µM and 1.45 µM	19.5 µM and 3.36 µM and 3.86 µM	8.48 µM and 2.4 µM and 3.24 µM	22.1 µM and 6.73 µM and 8.11 µM	1.65 µM and 1.36 µM and 0.464 µM	4.08 µM and 2.68 µM and 1.22 µM	0.0764 µM	1.46 µM	1.99 µM and 1.38 µM and 0.391 µM	4.77 µM and 2.67 µM and 1.08 µM	1.39 µM and 1.69 µM and 0.391 µM	4 µM and 3.06 µM and 0.838 µM
COC(=O)/C(C#N)=C1\CCC(C(=O)OC)N1C (stereo not drawn)	–	> 100 µM	–	> 100 µM	–	> 100 µM	–	> 100 µM	–	> 100 µM	–	> 100 µM	–	> 100 µM	–	> 100 µM	–	> 100 µM	–	> 100 µM
Cc1cc2c(Br)cc(Br)c(O)c2nc1C(=O)c1ccccc1	–	55.7 µM	–	> 45.5 µM	–	> 100 µM	–	51.1 µM	–	30.7 µM	–	> 56.4 µM	–	29.8 µM	–	> 100 µM	–	> 65.7 µM	–	> 82.1 µM
Cc1ncc(C(=O)Nc2ccc(CN3CCN(C)CC3)c(C(F)(F)F)c2)cc1C#Cc1cnc(NC2CC2)c2ncccc12	1.36 µM	4.51 µM	0.566 µM	1.1 µM	0.709 µM	1.51 µM	0.646 µM	1.36 µM	0.623 µM	1.19 µM	0.747 µM	1.68 µM	0.546 µM	1.04 µM	0.493 µM	1.27 µM	0.719 µM	1.59 µM	0.675 µM	1.19 µM
O=C/C(=C(/Cl)c1ccc(O)cc1)c1ccccc1	–	46.9 µM	–	46 µM	–	66.6 µM	–	55.1 µM	–	> 100 µM	–	> 72.2 µM	–	48.9 µM	–	> 100 µM	–	> 56.6 µM	–	61.8 µM
O=S1(=O)NCCCN1CCNc1nccc(-c2c(-c3cccc(O)c3)nc3sccn23)n1	0.581 µM	27.4 µM	43.6 µM	> 100 µM	11.3 µM	64.4 µM	29 µM	> 100 µM	21.5 µM	> 100 µM	51.9 µM	> 100 µM	1.71 µM	17.3 µM	5.55 µM	59.3 µM	2.99 µM	> 100 µM	37 µM	> 96.6 µM
Cc1nnc(N/N=C(/C(=O)C(C#N)c2ccccc2)C(C#N)c2ccccc2)n1N (stereo not drawn)	–	14 µM	–	> 53 µM	–	> 95.9 µM	–	17.8 µM	–	12.6 µM	–	13.7 µM	–	32.7 µM	–	> 100 µM	–	13.2 µM	–	> 56.5 µM
NC(=O)C1(N2CCCCC2)CCN(CCCC(=O)c2ccc(F)cc2)CC1	0.715 µM	6.89 µM	24.7 µM	> 100 µM	7.28 µM	> 100 µM	1.08 µM	> 20.1 µM	2.7 µM	> 100 µM	2.7 µM	> 100 µM	0.158 µM	12.6 µM	0.0761 µM	–	–	> 100 µM	17.2 µM	> 100 µM
